Experimental data taken from US10828315B2 (Madrigal Pharmaceuticals, Inc., priority 2013, dated 2020).
Where two headings read alike, the source gives them in different places.

Columns and labels:
[1] = Stability in mouse plasma, 2 h at 37° C. (Example 5); assay type: in vitro ADME; settings: mouse, plasma, 2 h
Description: (§1) SDC-TRAP-0022 and SDC-TRAP-0028 were incubated in human and mouse plasma for 2 h at 37° C. and assayed for integrity at 0.25, 0.5, 1 and 2 h. The values reported below are the remaining of the parent compound at the end of the 2 h incubation period.

[2] = Stability in human plasma, 2 h at 37° C. (Example 5); assay type: in vitro ADME; settings: human, plasma, 2 h
Description: as §1

Human H3122 NSCLC cells = experiment: Cell viability assay (CellTiter-Glo) in H3122 cells (Example 4); assay type: cell-based; settings: NCI-H3122
Description: Human H3122 NSCLC cells were obtained and grown in RPMI in the presence of fetal bovine serum (10%), 2 mM L-glutamine and antibiotics (100 IU/ml penicillin and 100 μg/ml streptomycin, Sigma Aldrich.) Cells were maintained at 37° C., 5% CO2 atmosphere.
Cell viability was measured using the CellTiter-Glo® assay (Promega). In brief, cells were plated in 96-well plates in triplicate at optimal seeding density (determined empirically) and incubated at 37° C., 5% CO2 atmosphere for 24 hr prior to the addition of drug or vehicle (0.3% DMSO) to the culture medium. At the end of the assay, CellTiter-Glo was added to the wells per manufacturer's recommendation, shaken for two minutes and incubated for 10 minutes at room temperature. Luminescence (0.1 sec) was measured with a Victor II microplate reader (Perkin Elmer) and the resulting data were used to calculate cell viability, normalized to vehicle control.
Cells as described above were treated with exemplary SDC-TRAPs and their viability determined as above as well. The following table illustrates the results.

[3] = mouse, plasma, 1 h, 10 µM
HER2 [4] = experiment: HER2 degradation in BT-474 cells (Example 3, Methods 1 and 2); assay type: cell-based, human
Outline: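 BT-474 cells treated 24 h at 37 °C with 10-point 3-fold compound dilutions; HER2 read by in-cell immunofluorescence after paraformaldehyde fixation, signal normalized to DRAQ5 nuclear stain, EC50 from curve fit. Degradation also checked by western blot of cytosolic lysates against tubulin.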

[5] = Mouse plasma stability protocol, up to 1 h (Examples 16-18); settings: for % Remaining (1 h): % Remaining of parent after 1 h incubation in mouse plasma at 37° C. (10 μM); for % Remaining (1 h, 37° C.) / Mouse (10 μM) % Remaining 1 h (37° C.)§ / Mouse (10 μM) % Remaining 1 h (37° C.)*: mouse plasma; for Mouse (10 μM) % Remaining 1 h (37° C.)§: data from single parent peak; for Mouse (10 μM) % Remaining 1 h (37° C.)*: sum of both peaks
H 3211 NSLC cells = experiment: IC50 of continuous and pulsed exposure (Examples 9 and 10); assay type: cell-based; settings: two replicate columns
HER2 [6] = experiment: HER2 degradation assay with BT-474 cell line (Example 12, FACS); assay type: cell-based, human
[7] = Stability in cell culture media (Example 18); settings: for Media (5 μM) % Remaining 1 h (37° C.)§: data from single parent peak; for Media (5 μM) % Remaining 1 h (37° C.)*: sum of both peaks
Description: 98 μL of DMEM+10% FBS, +1% P/S, +1.5 g/L sodium bicarbonate cell culture media was mixed with 2 μL of DMSO and aliquotted into 96-well plates at 250 μL per 0, 1, 2, and 18 hour time point.
3×50 μL media samples in 96 were held in 96-well plates at −80° C. until the last time point was extracted. 200 μL of methanol containing IS was added and mixed by vortex at 1500 rpm for 1.5 minutes at room temperature. The samples were centrifuged at 4400 rpm for 10 minutes at 8° C.

[8] = Artificial membrane permeability assay (PAMPA); settings: same protocol, second table
Description: Pre-coated PAMPA plates were warmed to room temperature for at least 30 minutes prior to adding assay components.
Stock solutions were prepared with the SDC-TRAP molecules to be tested. In order to make a working solution, either 50 μL of 100 μM Stock in DMSO+950 μL of PBS or 50 μL of 200 μM stock was added to 96 deep well plate, resulting in a 5 μM final concentration or a 10 μM final concentration, respectively. 3000 μL of the working solution containing each compound to be tested was added to the appropriate well of a donor PAMPA plate. 200 μL of PBS was added into the corresponding wells of an acceptor PAMPA plates.
The acceptor plate was lowered onto the donor plate and allowed to incubate for five hours. After five hours, a 50 μL aliquot was removed from each well of each plate and added into a new 96 deep-well plate.
100 μL of methanol containing an internal standard was added to each aliquot and analyzed by LC/MS.
In order to calculate the permeability for each SDC-TRAP molecule and the control molecules, the following formula was used:

[9] = tested on: human urinary bladder cancer cell line SW780; experiment: Cytotoxicity assay (CellTiter-Glo, 72 h), SW780; assay type: cell-based; settings: SW780, 72 h, read-out: Cytotoxicity (IC50, nM) SW-780
Description: (§2) Cytotoxicity of SDC-TRAP molecules was determined in three cancer cell lines. […] 80 μL of CellTiter-Glo was added to each well, followed by room temperature incubation in the dark for 15 minutes. Cell was determined by luminescence. IC50 was calculated using XLfit™ software.

[10] = tested on: human breast cancer cell line BT-474; experiment: Cytotoxicity assay (CellTiter-Glo, 72 h), BT-474; assay type: cell-based; settings: BT-474, 72 h, read-out: Cytotoxicity (IC50, nM) BT-474
Description: as §2

[11] = tested on: human urinary bladder cancer cell line RT-112; experiment: Cytotoxicity assay (CellTiter-Glo, 72 h), RT-112; assay type: cell-based; settings: RT-112, 72 h, read-out: Cytotoxicity (IC50, nM) RT-112
Description: as §2

in vivo = settings: female, SCID, mouse
[12] = tested on: HCT-116 human colorectal xenografts; experiment: Mouse xenograft efficacy in HCT-116 colon cancer model; settings: IV, Q7D×3, then drug-free period; SDC-TRAP-0063 200 and 100 mg/kg, SDC-TRAP-0046 94 mg/kg, irinotecan 67 mg/kg, SYN-01 100 mg/kg
Description: The cells were maintained in vitro as a monolayer culture in McCoy's 5a Medium. Fetal bovine serum was then be added to the medium. The final concentration of fetal bovine serum was 10%. Cells were cultured at 37° C. and 5% CO2. The tumor cells were routinely sub-cultured twice weekly by trypsin-EDTA treatment. Cells in an exponential growth phase were harvested and counted for tumor inoculation.
100 18-22 g, 5-7 week old, female BALB/cA nude mice were inoculated with the HCT 116 cells (2.0×10^6, 1:1 with Matrigel) subcutaneously on the back of each animal (0.1 mL/mouse). When the average tumor volume reached about 150-250 mm^3, 60 of the inoculated mice was selected based on tumor growth and randomly grouped into 6 treatment groups (10 mice per group) according to the following table.
The administrations were made with 27-gauge IV needle.
During the treatment period, the implanted tumors were measured by caliper twice per week. The tumors were measured for the maximum width (X) and length (Y) and the tumor volumes (V) were calculated using the formula: V=(X^2Y)/2. The differences in the tumor volume between the control and treatment groups were analyzed for significance using the unpaired two-tailed Student's t-test. P<0.05 was considered to be statistically significant. The animal body weights were also weighed and recorded twice per week.

[13] = Tissue Distribution Data for SDC-TRAP-0171, Time (h) 0.083
[14] = Tissue Distribution Data for SDC-TRAP-0171, Time (h) 1
[15] = Tissue Distribution Data for SDC-TRAP-0171, Time (h) 6
[16] = Tissue Distribution Data for SDC-TRAP-0171, Time (h) 24
[17] = Tissue Distribution Data for SDC-TRAP-0171, Time (h) 48
[18] = Tissue Distribution Data for SDC-TRAP-0046, Time (h) 0.083
[19] = Tissue Distribution Data for SDC-TRAP-0046, Time (h) 6
[20] = Tissue Distribution Data for SDC-TRAP-0046, Time (h) 12
[21] = Tissue Distribution Data for SDC-TRAP-0046, Time (h) 24
[22] = Tissue Distribution Data for SDC-TRAP-0046, Time (h) 48
[23] = after SDC-TRAP-0046 50 mg/110 mL/kg IV, DRD, 6 h
[24] = after SDC-TRAP-0046 50 mg/110 mL/kg IV, DRD, 12 h
[25] = after SDC-TRAP-0046 50 mg/110 mL/kg IV, DRD, 24 h
[26] = after SDC-TRAP-0046 50 mg/110 mL/kg IV, DRD, 48 h

CCc1c2c(nc3ccc(OCC(=O)N(C)CCOCCn4ccc5cc(-n6c(O)nnc6-c6cc(C(C)C)c(O)cc6O)ccc54)cc13)-c1cc3c(c(=O)n1C2)COC(=O)C3(O)CC (stereo not drawn) [SDC-TRAP-0028, 2-((4,11-diethyl-4-hydroxy-3,14-dioxo-3,4,12,14-tetrahydro-1H-pyrano[3′,4′: 6,7]indolizino[1,2-b]quinolin-9-yl)oxy)-N-(2-(2-(5-(3-(2,4-dihydroxy-5-isopropylphenyl)-5-hydroxy-4H-1,2,4-triazol-4-yl)-1H-indol-1-yl)ethoxy)ethyl)-N-methylacetamide]
% Remaining 2 h (37° C.), MO ([1]; 1 μM): 53%
% Remaining 2 h (37° C.), MO ([1]; 10 μM): 47%
% Remaining 2 h (37° C.), HU ([2]; 1 μM): 51%
% Remaining 2 h (37° C.), HU ([2]; 10 μM): 65%
IC50 (Human H3122 NSCLC cells): 909 nM
% Remaining (1 h) [3]: 40.9%
% Remaining (1 h, 37° C.) [3]: 41%

CCc1c2c(nc3ccc(OC(=O)N(C)CCOCCn4ccc5cc(-n6c(O)nnc6-c6cc(C(C)C)c(O)cc6O)ccc54)cc13)-c1cc3c(c(=O)n1C2)COC(=O)C3(O)CC (stereo not drawn) [SDC-TRAP-0029, 4,11-diethyl-4-hydroxy-3,14-dioxo-3,4,12,14-tetrahydro-1H-pyrano[3′,4′:6,7]indolizino[1,2-b]quinolin-9-yl (2-(2-(5-(3-(2,4-dihydroxy-5-isopropylphenyl)-5-hydroxy-4H-1,2,4-triazol-4-yl)-1H-indol-1-yl)ethoxy)ethyl)(methyl)carbamate]
IC50 (HER2 [4]): 1600 nM
% Remaining (1 h) [5]: 47.0%
% Remaining (1 h, 37° C.) [5]: 47%
Mouse (10 μM) % Remaining 1 h (37° C.)§ [5]: 44%
Mouse (10 μM) % Remaining 1 h (37° C.)* [5]: 47%
IC50 (H 3211 NSLC cells; 1 h, read-out: IC50, 1h-pulse/71h-compound free, 7.5 × 10^3 cells/well): > 3000 nM
IC50 (H 3211 NSLC cells; read-out: IC50, 1h-pulse/71h-compound free, 7.5 × 10^3 cells/well): > 3000 nM
IC50 (HER2 [6]): 1370 nM
IC50 (Human H3122 NSCLC cells): 125 nM
Media (5 μM) % Remaining 19 h (37° C.) [7]: 29%
Media (5 μM) % Remaining 1 h (37° C.)§ [7]: 43%
Media (5 μM) % Remaining 1 h (37° C.)* [7]: 46%
Mass Retention [8]: 84.0%

CC(C)c1cc(-c2nnc(O)n2-c2ccc(CN3CCN(C(=O)Oc4ccc(COC(=O)Nc5cccc6c5CN(C5CCC(=O)NC5=O)C6=O)cc4)CC3)c(F)c2)c(O)cc1O (stereo not drawn) [SDC-TRAP-0171, 4-((((2-(2,6-dioxopiperidin-3-yl)-1-oxoisoindolin-4-yl)carbamoyl)oxy)methyl)phenyl-4-(4-(3-(2,4-dihydroxy-5-isopropylphenyl)-5-hydroxy-4H-1,2,4-triazol-4-yl)-2-fluorobenzyl)piperazine-1-carboxylate]
IC50 [9]: 275 nM
IC50 [10]: 58 nM
% Remaining (1 h) [5]: 17.7%
IC50 (HER2 [6]): 199 nM
IC50 [11]: 20 nM
Plasma Conc. [13]: 618 µM
Tumor Conc. [13]: 0.083 nmol/g of tissue
Tumor/Plasma Ratio [13]: 0.0164
Plasma Conc. [14]: 32.2 µM
Tumor Conc. [14]: 1 nmol/g of tissue
Tumor/Plasma Ratio [14]: 0.249
Plasma Conc. [15]: 1.21 µM
Tumor Conc. [15]: 6 nmol/g of tissue
Tumor/Plasma Ratio [15]: 3.10
Plasma Conc. [16]: 0.00162 µM
Tumor Conc. [16]: 24 nmol/g of tissue
Tumor/Plasma Ratio [16]: 407
Plasma Conc. [17]: BQL
Tumor Conc. [17]: 48 nmol/g of tissue
Tumor Conc. (Tissue Distribution Data for SDC-TRAP-0178, Time (h) 0.083): 16.4 nmol/g of tissue
Tumor Conc. (Tissue Distribution Data for SDC-TRAP-0178, Time (h) 1): 12.8 nmol/g of tissue
Tumor Conc. (Tissue Distribution Data for SDC-TRAP-0178, Time (h) 6): 7.17 nmol/g of tissue
Tumor Conc. (Tissue Distribution Data for SDC-TRAP-0178, Time (h) 24): 2.81 nmol/g of tissue
Tumor Conc. (Tissue Distribution Data for SDC-TRAP-0178, Time (h) 48): 1.01 nmol/g of tissue
Kp at 1 h (in vivo): 0.0589
Kp at 6 h (in vivo): 1.59
Kp at 24 h (in vivo): 100
Kp at […] (in vivo): 0.0179
concentration at 1 h (in vivo): 217 µM
concentration at 6 h (in vivo): 4.51 µM
concentration at 24 h (in vivo): 0.028 µM
concentration at 48 h (in vivo): 0.241 µM
concentration at […] (in vivo): 918 µM

CCc1c2c(nc3ccc(OC(=O)N4CCN(Cc5ccc(-n6c(O)nnc6-c6cc(C(C)C)c(O)cc6O)cc5)CC4)cc13)-c1cc3c(c(=O)n1C2)COC(=O)C3(O)CC (stereo not drawn) [SDC-TRAP-0046, 4,11-diethyl-4-hydroxy-3,14-dioxo-3,4,12,14-tetrahydro-1H-pyrano[3′,4′:6,7]indolizino[1,2-b]quinolin-9-yl 4-(4-(3-(2,4-dihydroxy-5-isopropylphenyl)-5-hydroxy-4H-1,2,4-triazol-4-yl)benzyl)piperazine-1-carboxylate]
IC50 [9]: 489 nM
IC50 [10]: 205 nM
IC50 (HER2 [4]): 246 nM
antitumor activity in HCT-116 xenografts (FIG. 23) [12]: better activity in inhibiting the growth of HCT-116 cells in vivo than either positive control group
% Remaining (1 h) [5]: 51.6%
% Remaining (1 h, 37° C.) [5]: 52%
Mouse (10 μM) % Remaining 1 h (37° C.)§ [5]: 50%
Mouse (10 μM) % Remaining 1 h (37° C.)* [5]: 52%
IC50 (HER2 [6]): 246 nM
IC50 [11]: 20 nM
Plasma Conc. [18]: 360 µM
Tumor Conc. [18]: 6.94 nmol/g of tissue
Tumor/Plasma Ratio [18]: 0.0193
Plasma Conc. [19]: 5.88 µM
Tumor Conc. [19]: 4.97 nmol/g of tissue
Tumor/Plasma Ratio [19]: 0.844
Plasma Conc. [20]: 2.37 µM
Tumor Conc. [20]: 5.21 nmol/g of tissue
Tumor/Plasma Ratio [20]: 2.20
Plasma Conc. [21]: 0.0542 µM
Tumor Conc. [21]: 2.19 nmol/g of tissue
Tumor/Plasma Ratio [21]: 40.3
Plasma Conc. [22]: BQL
Tumor Conc. [22]: 0.188 nmol/g of tissue
Plasma Conc. [23]: 5.88 µM
Tumor Conc. [23]: 4.97 nmol/g of tissue
Plasma Conc. [24]: 2.37 µM
Tumor Conc. [24]: 5.21 nmol/g of tissue
Plasma Conc. [25]: 0.0542 µM
Tumor Conc. [25]: 2.19 nmol/g of tissue
Plasma Conc. [26]: BQL
Tumor Conc. [26]: 0.188 nmol/g of tissue
Tumor/Plasma Ratio (after SDC-TRAP-0046 IV, 6 h): 0.844
Tumor/Plasma Ratio (after SDC-TRAP-0046 IV, 12 h): 2.20
Tumor/Plasma Ratio (after SDC-TRAP-0046 IV, 24 h): 40.3
Tumor/Plasma Ratio (after SDC-TRAP-0046 IV, […]): 0.0193
Media (5 μM) % Remaining 19 h (37° C.) [7]: 37%
Media (5 μM) % Remaining 1 h (37° C.)§ [7]: 62%
Media (5 μM) % Remaining 1 h (37° C.)* [7]: 65%
Mass Retention [8]: 88.1%
